Test results published in US20240287104A1, “NUCLIDE LABELLED H-TETRAZINES AND USE THEREOF FOR PET AND SPECT PRETARGETED IMAGING AND RADIONUCLIDE THERAPY” (RIGSHOSPITALET, priority 2020, published 2024).

Columns and labels:
[1] = test system: CC49-TCO pretargeted LS174T tumor xenografts; experiment: Pretargeted PET imaging with six 18F-labeled Tz-derivatives (Example 140); type: in vivo, BALB/c nude mice; details: PET 1 h p.i., n=3-4 per group
Description: Mice (n=3-4 per group) were injected i.v. with either CC49-TCO or 0.9% saline (control experiments). After 72 h, ^18F-labeled Tz (5-10 MBq) were administered and the mice were PET/CT-scanned 1 h p.i. A 3D region of interest (ROI) was created on the entire tumor volume, as well as heart and muscle tissue, and the uptake was quantified as percentage of the injected dose per gram (mean % ID/g), tumor-to-blood (T/B) and tumor-to-muscle (T/M) ratios (FIG. 18A-D). FIG. 18 (A) is a schematic illustration of the pretargeting experiment and the research question: Is there a correlation between the blocking effect and the PET imaging contras. (B) Image-derived mean uptake values are presented as percentage of the injected dose per gram (% ID/g) in tumor. (C) Tumor-to-muscle (T/M) ratios (n=4 mice, except for [^18F]3, n=3). Data is represented as mean±S.D. (*p<0.05 and *** p<0.001). For all groups n=4 mice (except [^18F]3a where n=3) (D) Correlation between the blocking effect of the unlabeled Tz-derivatives 1a, 3a, 19a, 26a, 44a, and 45a and the T/M-ratios for the corresponding ^18F-labeled compounds observed by in vivo pretargeted PET imaging. A strong correlation was found (linear regression: R2=0.78, p=0.019, n=6). Data is represented as mean±S.D. The asterisk indicates significant difference (* p<0.05 and *** p<0.001) when compared to control. (E) Representative images of PET scans 1 h p.i. of the radiolabeled Tz ([^18F]1a, [^18F]3a, [^18F]19a, [^18F]26a, [^18F]44a and [^18F]45a) in pretargeted PET imaging studies (T indicates the position of the tumor).
This difference was also observed for the three ^18F-labeled Tz-derivatives showing specific tumor accumulation ([^18F]3a, [^18F]19a and [^18F]45a), but not for the non-accumulating probes [^18F]1a and [^18F]26a (FIG. 18B). Binding to residual mAb in the blood pool is a frequently reported challenge in pretargeted imaging approaches, and has been addressed by the development of clearing agents.

[2] = test system: CC49-TCO pretargeted LS174T colon carcinoma xenografts; experiment: Pretargeted blocking assay with [111In]Q (Example 140); type: in vivo, BALB/c mice; details: as listed in Table 6, value of the unlabeled Tz
Description: All animal studies were approved by the Danish Animal Welfare Council, ministry of Justice. Five weeks old female nude BALB/c mice (Charles River, Sulzfeld, Germany) were allowed to acclimatize for one week with access to water and chow ad libitum. Human colon cancer cell line (LS174T; obtained from ATCC) was cultured in minimum essential medium (MEM) supplemented with 10% fetal bovine serum, 1% L-Glutamine, 1% Sodium pyruvate, 1% non-essential amino acids, and 1% penicillin-streptomycin at 37° C. and 5% CO2. Cells were harvested by trypsination at a confluence of 70-90% and subcutaneous tumors were established in the left flank of the 6 weeks old animals by inoculation of ˜5×10^6 LS174T cells resuspended in sterile PBS (100 μL) and allowed to grow for 7-10 days. Tumors were measured using a caliper and the volume calculated using the formula volume=½(length×width^2).
The assay was inspired by receptor blocking experiments and based on the pretargeted imaging approach reported by Rossin et al. An ^111In-labeled Tz [^111In]Q was used in pair with TCO-modified CC49, a non-internalizing mAb that targets the tumor-associated glycoprotein 72 (TAG72), as a benchmark model for the in vivo ligation.
The TCO-modification of CC49 was carried out according to Rossin et al. To study the in vivo ligation performance of Tz-derivatives 1a-45a, BALB/c mice bearing LS174T colon carcinoma xenografts were injected intravenously (i.v.) with CC49-TCO 72 h prior to i.v. injection of the unlabeled Tz, followed by administration of [^111In]Q 1 h later. The animals were euthanized after 22 h and an ex vivo biodistribution was carried out to quantify the tumor uptake of [111 In]Q (FIG. 15). The efficiency of the in vivo ligation of the unlabeled Tz can thus be correlated to a reduced uptake of [111 In]Q (FIG. 15). As a control, blocking was performed using the non-radioactive precursor of [^111In]Q, which blocked ≥99% of the [^111In]Q tumor uptake. A group of CC49-TCO pretreated mice were injected exclusively with [^111In]Q (without blocking) and the determined uptake was used as reference value (100%) to normalize the observed changes in tumor uptake in blocking experiments.
All of these probes include H-phenyl-, pyrimidyl-phenyl-, or bis(pyridyl)-Tz-scaffolds with second-order rate constants for the reaction with TCO of >70 M 1 s 1 (1,4-dioxane, 25° C.) or of >39,000 M 1 s 1 (DPBS, 37° C.) (cf. Table 5). Next, potential correlations between the blocking effect, the c log D7.4 and the TPSA, as well as IEDDA reactivity were investigated. […] However, a distinct relationship between c log D7.4 values and the blocking effect was evidently observed when comparing Tz-derivatives with similar IEDDA reactivity (FIG. 16C, 16D). For all Tz-scaffolds a Pearson's correlation coefficient >0.78 was found. […] The blocking effect of non-radiolabeled Tz was determined as the change in tumor uptake of [111 In]Q 22 h p.i. Each Tz was administered 1 h prior to [111 In]Q and the uptake normalized to a group of animals were no blocking was performed (control). Data represent mean from n=3 mice/group. Correlation of blocking effect and c log D7.4 for Tz-derivatives with similar IEDDA reactivity (as shown in FIGS. 16C and D) where data was fitted to exponential growth equation Y=Y0 ekx (dotted line). The statistical analysis of the correlation between tumor uptake and c log D7.4 for the different groups of Tz-derivatives (shown in Table 7) was obtained by Pearson's correlation coefficient (r) which describes the goodness of fit between the blocking effect and c log D7.4. Notes: a Reaction of representative Tz with unsubstituted TCO; “Reaction of representative Tz with TCO-PEG4;” Measured for Tz-scaffold A only; n.d.=not determined.

[3] = In vivo stability of 18F-labeled Tz-derivatives, plasma radio-TLC; details: naïve mice, n=4
Description: In order to verify that the results from the blocking study can be used to predict the outcome for in vivo PET imaging, 18 Tz-derivatives from the first library were selected. The selection was based on criteria such as, the possibility for ^18F-labeling, structural diversity, lipophilicities and distinct IEDDA reactivities. For this purpose, we decided to use an indirect radiolabeling approach, enabling the combination of different building blocks to rapidly access a series of ^18F-labeled Tz-derivatives. The Cu-catalyzed azide-alkyne [3+2] cycloaddition (CuAAC) appeared to be suitable in this respect, as it allows for fast and efficient radiolabeling under mild reaction conditions. Six precursor Tz-alkynes (I-VI) were prepared and reacted with three ^18F-labeled azides ([^18F]Az1-Az3) to obtain 18 different [^18F]Tz-probes (FIG. 17). Notes to Table 6 showing the results obtained: ^aRCYs were decay-corrected to the starting amount of radioactivity for the respective azide or *RCY was determined starting from ^18F—. ^bMolar activities (Am) differ due to the use of different cyclotrons. ^cRCP was determined by radio-HPLC. ^dIn vivo stability of [^18F]Tz was assessed by determining the fraction (%) of radioactivity corresponding to intact compound after 30 min (n=4) from radio-TLC analysis. n.d.=not determined.
Next, we investigated whether there is a relationship between the in vivo stability of Tz-derivatives and their blocking ability. Fifteen ^18F-labeled tetrazines were studied in naïve mice. Blood was collected after 30 min, and plasma samples were analyzed by radio-TLC for stability assessment (Table 6). […] Consequently, six [^18F]Tz ([^18F]1a, [^18F]3a, [^18F]19a, [^18F]26a, [^18F]44a, and [^18F]45a) were selected for further in vivo studies solely based on the IEDDA-reactivity (second-order rate constants between 72 and 230 M^−1s^−1) and lipophilicity (c log D7.4 between −1.53 and 2.10). These radiolabeled Tz-probes were used to investigate if the results from the blocking assay can be translated to pretargeted PET imaging at tracer doses.

[4] = Second order rate constants from stopped-flow measurements with TCO at 25° C. in ACN (Table 1); type: physicochemical; details: second order rate constants estimated from stopped-flow measurements of the alkyne-Tz building block with TCO at 25° C. in ACN
Description: In Table 1, the following letters in brackets defines the following: [a] Radiochemical conversion (RCC) and Radiochemical purity (RCP) were determined by radio-HPLC (n=3); [b] Radiochemical yield (RCY) was decay corrected to the starting amount of radioactivity received from the cyclotron and the isolated product without formulation step (n=3); [c] Second order rate constants estimated from stopped-flow measurements of the alkyne-Tz building block with TCO at 25° C. in CAN; [d] No product formed or could not be isolated.
Reaction kinetics of the Tz-derivatives were determined by pseudo-first order measurements in dioxane at 25.0±0.1° C. or PBS at 27.0±0.1° ° C. in a SX20 stopped flow photometer (Applied Photophysics). The pseudo first order rate constant was determined by linearization of the decay curve followed by linear fitting. The second order rate constant was calculated from the pseudo-first order rate constant.

Row | Compound | Tumor accumulation in mice pretreated with CC49-TCO compared to control animals [1] | Blocking effect (%) (of unlabeled Tz) [2] | In vivo stability (% intact [^18F]Tz after 30 min) [3] | k2 [4]
1 | O=C(CCc1cn([C@@H]2O[C@H](C[18F])[C@@H](O)[C@H](O)[C@H]2O)nn1)Nc1ccc(-c2nnc(-c3ccccn3)nn2)nc1 [[^18F]45a] | significantly increased tumor accumulation | 99% | 42% | –
2 | [18F]c1cccc(-c2nncnn2)c1 [[^18F]-9] | – | – | – | 222 M⁻¹ s⁻¹
3 | O[C@@H]1[C@@H](O)[C@H](n2cc(-c3ccc(-c4nncnn4)cc3)nn2)O[C@H](C[18F])[C@H]1O [[^18F]19a] | significantly increased tumor accumulation | 76% | 87% | –
4 | [18F]c1ccc(-c2nnc(-c3ccccc3)nn2)cc1 [[^18F]E] | – | – | – | 18 M⁻¹ s⁻¹
5 | [18F]c1ccc(-c2nncnn2)cc1 [[^18F]Y] | – | – | – | 159 M⁻¹ s⁻¹
6 | O=C(Nc1ccc(-c2nnc(-c3ccccn3)nn2)nc1)c1ccc(-c2cn(CC[18F])nn2)cc1 [[^18F]25a] | – | 16% | – | –
7 | Cc1nnc(-c2ccc(OCc3cn([C@@H]4O[C@H](C[18F])[C@@H](O)[C@H](O)[C@H]4O)nn3)cc2)nn1 [[^18F]7a] | – | 3% | 60% | –
8 | [18F]c1ccc(-c2nnc(-c3ccccn3)nn2)cc1 [[^18F]T] | – | – | – | 106 M⁻¹ s⁻¹
9 | O[C@@H]1[C@@H](O)[C@H](n2cc(COc3ccc(-c4nncnn4)cc3)nn2)O[C@H](C[18F])[C@H]1O [[^18F]3a] | significantly increased tumor accumulation | 81% | 76% | –
10 | [18F]c1ccc(-c2nnc(-c3ccccn3)nn2)nc1 [[^18F]U] | – | – | – | 206 M⁻¹ s⁻¹
11 | [18F]CCn1cc(-c2ccc(-c3nncnn3)cc2)nn1 [[^18F]17a] | – | 0% | 32% | –
12 | Cc1nnc(-c2ccc(OCc3cn(CC[18F])nn3)cc2)nn1 [[^18F]5a] | – | 10% | 26% | –
13 | O=C(CCc1cn(CC[18F])nn1)Nc1ccc(-c2nnc(-c3ccccn3)nn2)nc1 [[^18F]43a] | – | 67% | 10% | –
14 | [18F]c1cccc(-c2nnc(-c3ccccc3)nn2)c1 [[^18F]R] | – | – | – | 30 M⁻¹ s⁻¹
15 | O[C@@H]1[C@@H](O)[C@H](n2cc(COc3ccc(-c4nnc(-c5ccccn5)nn4)cc3)nn2)O[C@H](C[18F])[C@H]1O [[^18F]14a] | – | 24% | 43% | –
16 | [18F]CCn1cc(COc2ccc(-c3nncnn3)cc2)nn1 [[^18F]1a] | no significant difference in tumor uptake | 9% | 90% | –
17 | O=C(Nc1ccc(-c2nnc(-c3ccccn3)nn2)nc1)c1ccc(-c2cn([C@@H]3O[C@H](C[18F])[C@@H](O)[C@H](O)[C@H]3O)nn2)cc1 [[^18F]27a] | – | 51% | – | –
18 | [18F]CCn1cc(COc2ccc(-c3nnc(-c4ccccn4)nn3)cc2)nn1 [[^18F]12a] | – | 0% | 10% | –
19 | Cc1nnc(-c2ccc([18F])cc2)nn1 [[^18F]Tz1] | – | – | – | 2.25 M⁻¹ s⁻¹
